Experiment [1] concerns the target T1, Corticotropin-releasing factor receptor 2/Corticotropin-releasing factor-binding protein (Homo sapiens, UniProt P24387+Q13324).
T1 sequence (Q13324 whole entry): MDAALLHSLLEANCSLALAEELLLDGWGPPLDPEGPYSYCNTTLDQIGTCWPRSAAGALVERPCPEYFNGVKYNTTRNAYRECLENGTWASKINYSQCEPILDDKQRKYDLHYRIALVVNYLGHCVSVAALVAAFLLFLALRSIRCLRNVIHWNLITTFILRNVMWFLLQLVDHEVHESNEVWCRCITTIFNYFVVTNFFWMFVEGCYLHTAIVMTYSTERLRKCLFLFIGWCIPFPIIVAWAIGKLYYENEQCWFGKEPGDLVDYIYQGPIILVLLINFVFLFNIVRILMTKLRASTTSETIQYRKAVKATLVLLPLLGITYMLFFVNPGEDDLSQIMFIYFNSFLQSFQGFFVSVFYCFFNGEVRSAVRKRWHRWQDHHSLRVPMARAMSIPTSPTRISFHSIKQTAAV
T1 sequence (P24387 whole entry): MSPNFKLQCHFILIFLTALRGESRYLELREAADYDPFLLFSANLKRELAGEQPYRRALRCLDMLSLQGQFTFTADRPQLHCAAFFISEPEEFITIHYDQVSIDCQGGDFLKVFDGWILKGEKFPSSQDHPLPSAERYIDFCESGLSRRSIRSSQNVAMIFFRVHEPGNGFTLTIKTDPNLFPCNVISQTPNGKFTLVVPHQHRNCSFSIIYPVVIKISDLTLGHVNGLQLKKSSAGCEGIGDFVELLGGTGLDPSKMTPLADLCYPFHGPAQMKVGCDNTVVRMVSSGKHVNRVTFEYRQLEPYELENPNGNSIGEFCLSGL
In words: Dose Response confirmation of uHTS hits for small molecule antagonists of the CRF-binding protein and CRF-R2 receptor complex. It counts as functional. The following applies: read-out: IC50_Mean.

Experiment [2] concerns the target T1, Corticotropin-releasing factor receptor 2/Corticotropin-releasing factor-binding protein. In words: activators of CRF receptor 2 with binding protein – uHTS hits, confirmation (AID 602473). It counts as functional. The following applies: read-out: EC50_Mean.
The target in experiment [3] is T2, Ubiquitin-conjugating enzyme E2 N (Homo sapiens, UniProt P61088).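 Also: Dose-response confirmation in a TR-FRET assay detecting UBC13-driven polyubiquitin chain formation, inhibition measured.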
T2 sequence (P61088 whole entry): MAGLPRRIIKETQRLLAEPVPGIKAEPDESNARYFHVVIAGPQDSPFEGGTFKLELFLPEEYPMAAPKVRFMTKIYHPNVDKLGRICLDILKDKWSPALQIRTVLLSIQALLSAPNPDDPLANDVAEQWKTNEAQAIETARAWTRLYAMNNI
It counts as functional.

A further experiment can be described thus: cells. It counts as functional.
Experiment [4] is described as follows: THP-1 cell cytotoxicity, dose response, cytotoxicity control for non-replicating M. tuberculosis project (AID 489025). It counts as functional.
Experiment [5] in a line: microbe, parasite or virus in culture. The following applies: Mycobacterium tuberculosis. It counts as functional.
The target in experiment [6] is FAD-linked sulfhydryl oxidase ALR (Homo sapiens, UniProt P55789). In words: inhibitors of human ALR sulfhydryl oxidase, dose response, biochemical, H2O2 detection, luminescence, cherry-pick (AID 493248).
Chain of FAD-linked sulfhydryl oxidase ALR (P55789 whole entry): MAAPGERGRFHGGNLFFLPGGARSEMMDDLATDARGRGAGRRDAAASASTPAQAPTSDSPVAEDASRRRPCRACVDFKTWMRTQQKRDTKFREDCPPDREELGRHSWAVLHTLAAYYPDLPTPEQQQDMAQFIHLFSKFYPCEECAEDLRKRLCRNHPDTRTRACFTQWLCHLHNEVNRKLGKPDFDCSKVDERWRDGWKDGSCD
Experiment [7] in a line: inhibitors of intracellular T. cruzi replication, confirmation, NIH3T3 host cells, beta-gal luminescence (AID 2044).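 Also: intracellular parasites grown in NIH/3T3 mouse fibroblasts as host cells; luminescent beta-galactosidase reporter signal from transgenic T. cruzi replicating inside host cells; inhibitors lower the luminescence signal.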 The format is functional, cell-based.
Experiment [8] in a line: NIH-3T3 fibroblast cytotoxicity, dose response, cytotoxicity control, cell-based, fluorescence, Alamar Blue, secondary assay (AID 2327).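 Also: NIH-3T3 mouse fibroblasts cultured with fluconazole at 8 µg/mL.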 The format is functional. (The colour change of resazurin is a common sign of viable cells or microbes.)
Experiment [9] in a line: C. albicans growth with fluconazole, confirmation, fluorescence, retest (AID 2467). It counts as functional, cell-based.
A short description of experiment [10]: cytotoxicity toward NIH3T3 fibroblasts, dose response, counter-screen, cell-based, ATP luminescence, mouse fibroblasts (AID 2010).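 Also: cells exposed to compound for about 90 hours before reading.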 It counts as functional. Background: A counterscreen serves to expose hits that act by an unwanted route or on another target.
The nature of experiment [11]: inhibitors of SNCA 5'UTR-driven reporter translation, confirmation, H4 neuroglioma cells, luminescence (AID 1988). It counts as functional, cell-based.
Experiment [12] deals with T3, Rac GTPase-activating protein 1 (Homo sapiens, UniProt Q9H0H5).
T3 sequence (Q9H0H5 whole entry): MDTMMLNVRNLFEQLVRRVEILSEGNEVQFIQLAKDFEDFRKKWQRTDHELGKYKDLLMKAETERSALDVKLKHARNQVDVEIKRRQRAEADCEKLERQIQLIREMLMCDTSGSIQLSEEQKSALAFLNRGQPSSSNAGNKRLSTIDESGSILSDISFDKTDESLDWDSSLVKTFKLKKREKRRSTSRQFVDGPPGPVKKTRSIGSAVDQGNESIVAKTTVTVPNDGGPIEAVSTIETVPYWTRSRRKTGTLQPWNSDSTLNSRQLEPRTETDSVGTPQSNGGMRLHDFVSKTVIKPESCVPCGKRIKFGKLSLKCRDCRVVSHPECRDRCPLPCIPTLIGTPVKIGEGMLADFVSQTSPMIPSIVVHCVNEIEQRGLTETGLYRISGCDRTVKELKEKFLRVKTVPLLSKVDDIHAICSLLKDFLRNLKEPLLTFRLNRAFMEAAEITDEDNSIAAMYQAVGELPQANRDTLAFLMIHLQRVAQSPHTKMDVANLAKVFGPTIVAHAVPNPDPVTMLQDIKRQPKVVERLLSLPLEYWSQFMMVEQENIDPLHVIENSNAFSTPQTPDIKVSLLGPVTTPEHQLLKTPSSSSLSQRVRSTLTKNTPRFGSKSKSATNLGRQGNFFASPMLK
In words: MgcRacGAP GTPase-activating activity inhibitors, confirmation, biochemical, ADP Hunter fluorescence, primary and confirmatory (AID 624330). It counts as functional.

Experiment [13] in a line: Luminescence Cell-Based Dose Response HTS to Identify Inhibitors of 5'UTR Stem-Loop Driven Prion Protein mRNA Translation in H4 Neuroglioblastoma Cells. [Related pubchem assays: 1827 (Project Summary), 1813 (Primary HTS)]. The format is functional.
Experiment [14] can be described thus: inhibitors of firefly luciferase expression or activity, dose response, H4 neuroglioma cells, luminescence (AID 1990). The format is functional, cell-based.
The subject of another experiment is Streptococcus. In words: Group A Streptococcus viability loss, dose response, counter-screen for streptokinase expression inhibitor project, luminescence, BacTiterGlo (AID 1915).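 Also: potency for reduction of bacterial viability or growth.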 The format is functional, organism-based.
Experiment [15] relates to Streptococcus sp. 'group A'. In words: growth inhibition of control SK(-) GAS strain, dose response, counter-screen for streptokinase expression inhibitor project, luminescence, kanamycin, BacTiterGlo, confirmation (AID 1900). It counts as functional, organism-based.
The target in a further experiment is T4, Streptokinase A (Streptococcus pyogenes serotype M1, UniProt P10520).
T4 sequence (P10520 whole entry): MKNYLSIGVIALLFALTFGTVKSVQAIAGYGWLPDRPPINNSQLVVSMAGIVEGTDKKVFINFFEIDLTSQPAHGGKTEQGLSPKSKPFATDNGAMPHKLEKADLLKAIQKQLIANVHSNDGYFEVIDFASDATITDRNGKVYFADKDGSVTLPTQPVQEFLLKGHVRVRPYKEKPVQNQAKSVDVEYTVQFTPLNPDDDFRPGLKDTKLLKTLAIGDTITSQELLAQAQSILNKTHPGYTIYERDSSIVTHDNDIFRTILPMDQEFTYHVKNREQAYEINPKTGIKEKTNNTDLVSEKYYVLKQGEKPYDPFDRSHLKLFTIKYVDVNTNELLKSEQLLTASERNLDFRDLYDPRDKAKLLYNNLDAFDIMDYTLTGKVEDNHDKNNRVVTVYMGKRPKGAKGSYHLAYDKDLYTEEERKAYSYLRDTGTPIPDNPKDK
Description: S. pyogenes streptokinase expression inhibitors, potency, dose response, plasminogen activation absorbance, OD405 (AID 1914).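 Also: secreted streptokinase activity via plasminogen activation per viability signal from cell pellet.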 It counts as functional, Streptococcus pyogenes M1 GAS.

The nature of experiment [16]: Luminescence Cell-Based Dose Retest to Confirm Inhibitors of Cancer Stem Cells. [Related pubchem assays (depositor defined):AID2717, AID2721]. It counts as functional, Homo sapiens.

The source made the active and inactive calls.

Consider `Cc1ccc(-n2c(Cl)c(Cl)[nH]c(=O)c2=O)cc1`, for which the IC50 in experiment [1] is > 47.1 µM (inactive). In addition, the EC50 in experiment [2] was > 53 µM (inactive).
`O=C1/C(=C/c2cccc([N+](=O)[O-])c2)CSc2ccc(Cl)cc21`: the IC50 in experiment [3] is > 20 µM (inactive).
As for `N#Cc1nc(-c2ccc(OCc3ccccc3)cc2)oc1NCCCn1ccnc1`, the IC50 in the experiment “cells” is 46.5 µM (active). Also, the CC50 in experiment [4] is 24.7 µM (active); in experiment [5], > 40 µM (active).
Regarding `CC(C)(C)Nc1nc(NC(C)(C)C)nc(-n2ccnc2)n1`, the IC50 in the experiment “cells” was 22.9 µM (active). The CC50 in experiment [4] is > 40 µM (active).
For orientation: AC50 means the concentration at which the activity in the assay is half-maximal. As for `NNC(=O)CCc1nc2ccc(O)cc2[nH]1`, the AC50 in [6] is 3.82 µM (active).
Same read-out and setting: as for `Oc1cnnc(Nc2ccc(Nc3ccccc3)cc2)n1`, the figure is 0.323 µM (active); as for `CN(C)c1ccc(C(=S)N2CCNCC2)cc1`, 2.18 µM (active).
For the compound `COc1ccc(OCC(=O)NNC(=S)NC(=O)c2ccc([N+](=O)[O-])cc2)cc1`, in [3], the IC50 is > 20 µM (inactive).
Take `CCc1nnc(N=C(S)Nc2ccccc2)s1`: the IC50 in [1] is > 47.1 µM (inactive). Also, in experiment [2], the EC50 is > 53 µM (inactive).
As to `O=C(C[n+]1nc(CNc2ccc(Br)cc2)n2c1CCCCC2)c1ccc([N+](=O)[O-])cc1`, the IC50 in [3] was > 20 µM (inactive).
In the case of `COc1cccc(C(=O)N2CCCC(Nc3ccc(C)c(C)c3)C2)c1` (stereo not drawn), the AC50 in experiment [6] was 7.17 µM (active).
Take `CC(=O)c1ccc(-[n+]2cc(-c3ccc(C(C)(C)C)cc3)n3c2SCCC3)cc1`: the EC50 was 0.443 µM (active) in [7], > 150 µM (inactive) in experiment [8], 2.03 µM (active) in [9] and > 60 µM (not active) in [10]. Further, in “cells”, the IC50 is 20.9 µM (active). Besides, the values for the CC50 in experiment [4] and in experiment [5] were 11.4 µM (active) and > 40 µM (active), respectively.
As to `C#CCOCCOCCOCCNc1nc(N2CCN(C(=O)[C@H]([C@@H](C)CC)n3cc(CCCN=C(N)N)nn3)CC2)nc(N2CCN(C(=O)[C@H](CCCCN)n3cc(CCCC)nn3)CC2)n1`, in [3], the IC50 is > 20 µM (inactive).
Turning to `COc1cc(Cl)c(C)cc1NC(=O)CSc1ccc(C)cc1`, the IC50 in [1] is > 47.1 µM (inactive). For the same compound, the EC50 in experiment [2] was > 53 µM (inactive).
Consider `COc1cc(C(=O)NCC(c2ccco2)N2CCc3ccccc32)cc(OC)c1OC` (stereo not drawn), for which, in [6], the AC50 is 5.5 µM (active).
In the case of `C=CCNC(S)=NNC(=O)c1ccc(OCC)cc1`, in [1], the IC50 is > 47.1 µM (inactive). For the same compound, in experiment [2], the EC50 is > 53 µM (inactive).
In the same order, the values of `CC1CCCN(CCCNC(=O)CN2C(=O)CSc3ccc(S(=O)(=O)N4CCOCC4)cc32)C1` (stereo not drawn) are > 47.1 µM (inactive) and > 53 µM (inactive).
In the same order, the values of `CC(NC(=O)COC(=O)C1(C)CC1(Cl)Cl)c1ccccc1` (stereo not drawn) are > 47.1 µM (inactive) and > 53 µM (inactive).
Take `Cc1cc(-c2c(C)[nH]n(-c3ccccc3)c2=O)[nH]n1`: the AC50 in experiment [6] is 5.41 µM (active). In the experiment “cells”, the IC50 is 5.35 µM (active). The CC50 in experiment [4] is > 40 µM (active); in experiment [5], 33 µM (active).
As for `CC12CCC(C(=O)N/N=C/c3ccc(O)cc3)(OC1=O)C2(C)C` (stereo not drawn), in experiment [6], the AC50 was 0.099 µM (active).
With `Cc1nc2ccc(-c3nc4cc(N)ccc4[nH]3)cc2[nH]1`, the EC50 in [11] is 38 µM (active); in experiment [13], 16.6 µM (active); in experiment [14], > 120 µM (not active). Further, the AC50 in experiment [6] is 0.736 µM (active). Besides, in experiment [12], the IC50 is 54 µM (active).
Turning to `CC/C(=C(\c1ccccc1)c1ccc(OCCN(C)C)cc1)c1ccccc1` [TAMOXIFEN], the results for the EC50 (in the experiment with Streptococcus; in [15]; on Streptokinase A) were 21.8 µM (active), 6.5 µM (active) and > 150 µM (not active), respectively. Moreover, the IC50 in experiment [3] was > 20 µM (inactive). For the same compound, the AC50 in experiment [16] was 5.52 µM (active).

Source of the values: ChEMBL document CHEMBL1201862, “PubChem BioAssay data set” (2004).
